Test results published in patent US20040115742A1, “Method to identify specific interaction between ligand and receptor” (priority 2002, published 2004).

Key:
[1] = biological target: T1, erythropoietin receptor (EPOR, P19235) (Homo sapiens, UniProt P19235); assay: cell-based ligand-lactamase fusion binding to cells expressing EPO receptor (CCF2 fluorescence); conditions: for fluorescence readout, multiplexed pool of 12 receptors: EPOR in pool of 12 receptors; for fluorescence readout, multiplexed pool of 96 receptors: EPOR in pool of 96 receptors; for fluorescence readout, one on one receptor-ligand binding / fluorescence readout, multiplexed pool of 12 ligands / fluorescence readout, multiplexed pool of 96 ligands: EPOR; for fluorescence readout, one on one receptor-ligand binding: one to one, beta-lactamase reporter, CCF2 substrate
T1 construct: V5-His (from vector pcDNA3.1D/V5-His-TOPO); expressed in transfected cells
T1 sequence (P19235 25-508): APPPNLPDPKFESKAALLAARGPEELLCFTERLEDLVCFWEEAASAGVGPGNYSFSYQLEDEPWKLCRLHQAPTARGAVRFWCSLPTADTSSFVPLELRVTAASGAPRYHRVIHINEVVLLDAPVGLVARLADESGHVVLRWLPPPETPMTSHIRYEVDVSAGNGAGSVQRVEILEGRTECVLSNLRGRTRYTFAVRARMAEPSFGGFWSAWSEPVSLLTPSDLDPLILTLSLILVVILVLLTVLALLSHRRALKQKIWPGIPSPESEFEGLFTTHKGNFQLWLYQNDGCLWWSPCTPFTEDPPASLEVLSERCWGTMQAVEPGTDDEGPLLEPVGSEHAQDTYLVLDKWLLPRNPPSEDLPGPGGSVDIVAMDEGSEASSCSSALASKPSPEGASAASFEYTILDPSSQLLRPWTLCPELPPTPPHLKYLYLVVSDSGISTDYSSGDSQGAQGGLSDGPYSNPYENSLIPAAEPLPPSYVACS
Method: (§1) Cells transfected with plasmids expressing a ligand lactamase fusion and cells transiently or stably expressing receptor were independently cultured in multiple well (e.g., 96-well, 384-well, or 1536-well) plates. After growth, the culture medium of the cells transiently or stably expressing receptor was removed, and the culture medium of the cells expressing ligand lactamase fusion was added to the wells of cells stably expressing receptor. After the mixture was incubated at 4° C. for 1 hour, the medium was removed. The cells stably expressing receptor were washed three times with PBS containing 1% FBS (Invitrogen), and a lactamase substrate, such as CCF2 in […], was added to the washed cells in each well, and incubated. The fluorescence emission at 447 nm with excitation at 409 nm was measured using the Spectra Max Gemim (Molecular Devices) at different time points. The increase of fluorescence emission at 447 nm represented the lactamase activity of ligand fusion bound on the cell surface.
The EPO receptor and EPO, IL-8, and TNF ligand lactamase fusion proteins were expressed as described above. The EPO, IL-8, and TNF ligand lactamase fusions were contacted with the EPO receptor in duplicate experiments.
(§2) EPO, IL-8, and TNF receptors and ligands were expressed as described above. Known ligands, including the EPO ligand, were grouped to form a multiplexed pool of 12 ligands and a multiplexed pool of 96 ligands. Compared to the fluorescence readout for one on one receptor-ligand binding for EPO/EPOR (26398 arbitrary units), the fluorescence readout (and thus, binding) was less for EPO/IL-8R (−503) and EPO/TNFR (−1027).
(§3) EPO, IL-8, and TNF receptors and ligands were expressed as described above. Known receptors, including the EPO receptor, were grouped to form a multiplexed pool of 12 receptors and a multiplexed pool of 96 receptors. Compared to the fluorescence readout for one on one receptor-ligand binding for EPOR/EPO (26398 arbitrary units), the fluorescence readout (and thus, binding) was less for EPOR/IL-8 (−902) and EPOR/TNF (−1113.5).

[2] = biological target: T2, interleukin-8 receptor A (IL8R, P25024) (Homo sapiens, UniProt P25024); assay: cell-based ligand-lactamase fusion binding to cells expressing IL-8 receptor (CCF2 fluorescence); conditions: for fluorescence readout, multiplexed pool of 12 receptors: IL-8R in pool of 12 receptors; for fluorescence readout, multiplexed pool of 96 receptors: IL-8R in pool of 96 receptors; for fluorescence readout, one on one receptor-ligand binding / fluorescence readout, multiplexed pool of 12 ligands / fluorescence readout, multiplexed pool of 96 ligands: IL-8R; for fluorescence readout, one on one receptor-ligand binding: one to one, beta-lactamase reporter, CCF2 substrate
T2 construct: V5-His (from vector pcDNA3.1D/V5-His-TOPO); expressed in transfected cells
T2 sequence (P25024 1-350): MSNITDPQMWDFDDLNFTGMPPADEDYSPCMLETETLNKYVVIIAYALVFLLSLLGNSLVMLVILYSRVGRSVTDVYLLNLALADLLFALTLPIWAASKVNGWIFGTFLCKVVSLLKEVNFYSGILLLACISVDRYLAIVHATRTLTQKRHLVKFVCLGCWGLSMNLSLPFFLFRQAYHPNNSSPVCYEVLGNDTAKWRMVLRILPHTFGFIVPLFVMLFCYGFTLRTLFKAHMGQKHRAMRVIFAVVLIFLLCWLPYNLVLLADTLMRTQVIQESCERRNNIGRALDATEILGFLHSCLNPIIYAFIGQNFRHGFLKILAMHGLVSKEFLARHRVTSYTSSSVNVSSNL
Method: as §1
The IL-8 receptor and IL-8, EPO, and TNF ligand lactamase fusion proteins were expressed as described above. The IL-8, EPO, and TNF ligand lactamase fusions were contacted with the IL-8 receptor in duplicate experiments.
EPO, IL-8, and TNF receptors and ligands were expressed as described above. Known ligands, including the IL-8 ligand, were grouped to form a multiplexed pool of 12 ligands and a multiplexed pool of 96 ligands.
EPO, IL-8, and TNF receptors and ligands were expressed as described above. Known receptors, including the IL-8 receptor, were grouped to form a multiplexed pool of 12 receptors and a multiplexed pool of 96 receptors.

[3] = biological target: T3, tumor necrosis factor receptor 2 (TNFR, P20333) (Homo sapiens, UniProt P20333); assay: cell-based ligand-lactamase fusion binding to cells expressing TNF receptor (CCF2 fluorescence); conditions: for fluorescence readout, multiplexed pool of 12 receptors: TNFR in pool of 12 receptors; for fluorescence readout, multiplexed pool of 96 receptors: TNFR in pool of 96 receptors; for fluorescence readout, one on one receptor-ligand binding / fluorescence readout, multiplexed pool of 12 ligands / fluorescence readout, multiplexed pool of 96 ligands: TNFR; for fluorescence readout, one on one receptor-ligand binding: one to one, beta-lactamase reporter, CCF2 substrate
T3 construct: V5-His (from vector pcDNA3.1D/V5-His-TOPO); expressed in transfected cells
T3 sequence (P20333 23-461): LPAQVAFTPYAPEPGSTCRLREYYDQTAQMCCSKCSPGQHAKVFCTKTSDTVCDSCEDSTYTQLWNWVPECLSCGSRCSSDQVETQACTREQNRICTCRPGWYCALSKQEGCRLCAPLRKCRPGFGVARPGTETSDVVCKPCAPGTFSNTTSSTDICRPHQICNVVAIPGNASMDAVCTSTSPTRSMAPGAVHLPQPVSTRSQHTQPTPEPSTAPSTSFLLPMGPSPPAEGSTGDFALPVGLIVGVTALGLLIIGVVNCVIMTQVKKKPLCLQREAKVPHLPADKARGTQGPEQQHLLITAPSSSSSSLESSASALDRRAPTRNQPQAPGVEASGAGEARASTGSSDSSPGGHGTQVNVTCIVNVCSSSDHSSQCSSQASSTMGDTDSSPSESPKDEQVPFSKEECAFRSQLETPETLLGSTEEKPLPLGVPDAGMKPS
Method: as §1
The TNF receptor and TNF, EPO, and IL-8 ligand lactamase fusion proteins were expressed as described above. The TNF, EPO, and IL-8 ligand lactamase fusions were contacted with the TNF receptor in duplicate experiments.
as §2, with “the TNF” for “the EPO”, “for TNF/TNFR (32899” for “for EPO/EPOR (26398”, “for TNF/EPOR (−1113.5)” for “for EPO/IL-8R (−503)”, “and TNF/IL-8R (−814.5).” for “and EPO/TNFR (−1027).”
as §3, with “the TNF” for “the EPO”, “for TNFR/TNF (32899” for “for EPOR/EPO (26398”, “for TNFR/EPO (−1027)” for “for EPOR/IL-8 (−902)”, “and TNFR/IL-8 (−1677).” for “and EPOR/TNF (−1113.5).”

[4] = duplicate experiments, in words

Row | Substance | fluorescence readout of the positive well (FIG. 6) ([1]; 96-well plate, cDNA expression library, multiplexing factor of 12, one out of 96 wells) | fluorescence readout, multiplexed pool of 12 receptors [1] [arbitrary units] | fluorescence readout, multiplexed pool of 96 receptors [1] [arbitrary units] | fluorescence readout, one on one receptor-ligand binding [1] [arbitrary units] | fluorescence readout, multiplexed pool of 12 ligands [1] [arbitrary units] | fluorescence readout, multiplexed pool of 96 ligands [1] [arbitrary units] | fluorescence readout of ligand binding with EPO receptor (FIG. 3) [1, 4] | fluorescence readout, multiplexed pool of 12 receptors [2] [arbitrary units] | fluorescence readout, multiplexed pool of 96 receptors [2] [arbitrary units] | fluorescence readout, one on one receptor-ligand binding [2] [arbitrary units] | fluorescence readout, multiplexed pool of 12 ligands [2] [arbitrary units] | fluorescence readout, multiplexed pool of 96 ligands [2] [arbitrary units] | fluorescence readout, multiplexed pool of 12 receptors [3] [arbitrary units] | fluorescence readout, multiplexed pool of 96 receptors [3] [arbitrary units] | fluorescence readout, one on one receptor-ligand binding [3] [arbitrary units] | fluorescence readout, multiplexed pool of 12 ligands [3] [arbitrary units] | fluorescence readout, multiplexed pool of 96 ligands [3] [arbitrary units] | fluorescence readout of ligand binding with IL-8 receptor (FIG. 3) [2, 4] | fluorescence readout of ligand binding with TNF receptor (FIG. 3) [3, 4]
1 | erythropoietin [EPO] | 13444 | 13570 | 1454 | 26398 | 13570 | 1454 | high fluorescence readout | −785 | −1334 | −503 | −785 | −1334 | −1598 | −1177 | −1027 | −1598 | −1177 |  | 
2 | interleukin-8 [IL-8] |  | −1059 | −1448 | −902 | −1059 | -1450 |  | 3785 | −476 | 16941 | 3785 | −476 | −1847 | −718 | −1677 | −147 | −718 | high fluorescence readout | 
3 | tumor necrosis factor alpha [TNF] |  | -1000 | −1634 | −1113.5 | −1005.5 | −1634 |  | −1275.5 | −381 |  | −1275.5 | −381 | 26974.5 | 6485.5 | 32899 | 26974.5 | 6485.5 |  | high fluorescence readout
